Experimental data from the supplement of paper PMC6045584.
± gives the standard deviation of the averaged measurements.

What was measured:
Test in all cases: surviving fraction relative to DMSO-only wells; higher = less growth inhibition
Details in all cases: exposure time: 5 days
[1] = compound: Cn1cc(C2=Nc3cc(NC(=O)C(N)C4CCCCC4)cc4c3C2=CNNC4=O)cn1
Summary of the method: (§1)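 Tumour cell lines in log phase were plated in 384-well plates at 250–500 cells per well, then, after 24 hours, exposed continuously for five days to inhibitors at 0.5, 1, 5, 10, 50, 100, 500 and 1000 nM. Viability came from CellTiter-Glo luminescence, and surviving fraction is that signal normalised to the median of DMSO-only wells. Plates were read after 10 minutes at room temperature, and each line, screened three times, was kept only when replicate Pearson r was >0.7 and median Z' was >0.3.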

AFATINIB = compound: CN(C)C/C=C/C(=O)Nc1cc2c(Nc3ccc(F)c(Cl)c3)ncnc2cc1O[C@H]1CCOC1 [AFATINIB]
Summary of the method: as §1

SAPACITABINE = compound: CCCCCCCCCCCCCCCC(=O)Nc1ccn([C@@H]2O[C@H](CO)[C@@H](O)[C@@H]2C#N)c(=O)n1 [SAPACITABINE]
Summary of the method: as §1

TIOGUANINE = compound: Nc1nc2[nH]cnc2c(=S)[nH]1 [TIOGUANINE]
Summary of the method: as §1

CANERTINIB = compound: C=CC(=O)Nc1cc2c(Nc3ccc(F)c(Cl)c3)ncnc2cc1OCCCN1CCOCC1 [CANERTINIB]
Summary of the method: as §1

With OS25HAL BONE the surviving fraction ([1]; 0.5 nM) was 1.014 ± 0.01, the surviving fraction ([1]; 1 nM) was 1.03 ± 0.042 and the surviving fraction ([1]; 5 nM) was 1.005 ± 0.0044. The surviving fraction ([1]; 10 nM) was 1.012 ± 0.0078, the surviving fraction ([1]; 50 nM) was 0.978 ± 0.045 and the surviving fraction ([1]; 100 nM) was 0.984 ± 0.012. It also gave a surviving fraction ([1]; 500 nM) of 0.0757 ± 0.017, a surviving fraction ([1]; 1000 nM) of 0.0387 ± 0.0011 and a surviving fraction (AFATINIB; 0.5 nM) of 0.966 ± 0.014. It also gave a surviving fraction (AFATINIB; 1 nM) of 1.01 ± 0.018, a surviving fraction (AFATINIB; 5 nM) of 1 ± 0.029 and a surviving fraction (AFATINIB; 10 nM) of 1 ± 0.044. It also gave a surviving fraction (AFATINIB; 50 nM) of 1.03 ± 0.039, a surviving fraction (AFATINIB; 100 nM) of 1.08 ± 0.013 and a surviving fraction (AFATINIB; 500 nM) of 1.02 ± 0.03. For the same test system, the surviving fraction (AFATINIB; 1000 nM) was 0.855 ± 0.085, the surviving fraction (SAPACITABINE; 0.5 nM) was 0.868 ± 0.022 and the surviving fraction (SAPACITABINE; 1 nM) was 0.8983 ± 0.0076. For the same test system, the surviving fraction (SAPACITABINE; 5 nM) was 0.834 ± 0.0066, the surviving fraction (SAPACITABINE; 10 nM) was 0.855 ± 0.059 and the surviving fraction (SAPACITABINE; 50 nM) was 0.974 ± 0.036. The surviving fraction (SAPACITABINE; 100 nM) was 0.925 ± 0.015, the surviving fraction (SAPACITABINE; 500 nM) was 0.293 ± 0.019 and the surviving fraction (SAPACITABINE; 1000 nM) was 0.15 ± 0.014. The surviving fraction (TIOGUANINE; 0.5 nM) was 0.943 ± 0.015, the surviving fraction (TIOGUANINE; 1 nM) was 0.951 ± 0.017 and the surviving fraction (TIOGUANINE; 5 nM) was 0.967 ± 0.0017. The surviving fraction (TIOGUANINE; 10 nM) was 0.933 ± 0.027, the surviving fraction (TIOGUANINE; 50 nM) was 1 ± 0.024 and the surviving fraction (TIOGUANINE; 100 nM) was 1.01 ± 0.033. It also gave a surviving fraction (TIOGUANINE; 500 nM) of 1.002 ± 0.0066, a surviving fraction (TIOGUANINE; 1000 nM) of 0.955 ± 0.032 and a surviving fraction (CANERTINIB; 0.5 nM) of 0.898 ± 0.0053. For the same test system, the surviving fraction (CANERTINIB; 1 nM) was 0.879 ± 0.013, the surviving fraction (CANERTINIB; 5 nM) was 0.886 ± 0.003 and the surviving fraction (CANERTINIB; 10 nM) was 0.893 ± 0.042.
